Experimental data reported in patent US20260274794A1, “COMPOUNDS, COMPOSITIONS, AND METHOD OF INHIBITING TAU PROTEIN AND ALPHASYNUCLEIN AGGREGATION” (Purdue Research Foundation, priority 2023, published 2026).
Entries after “also recorded” stand apart in the source; their conditions may differ.

Experiments:
[1] = molecular target: T1, tau isoform 2N4R (Homo sapiens, UniProt P10636); test: PICUP assay of tau isoform 2N4R oligomerization; format: biochemical; details: compound 50 μM
T1 construct: made in house; host or cells: E. coli BL21 (DE3), vector pRK172
Method: (§1) To force the oligomerization by cross-linking, α-syn (from Rpeptide, LLC) and tau isoform 2N4R were diluted in 10 mM phosphate buffer (pH 7.4) to reach a final concentration of 10 μM [27]. Different compounds were added to the protein solution at a final concentration of 50 μM, resulting in a molar ratio of 1:5. To confirm the gradual effect of the compounds on the inhibition of α-syn oligomerization, compounds were tested at final concentration of 3.125, 6.25, 12.5, 25, and 50 μM. The controls consisted of samples without light exposition, without Ru(bpy), and without compound (i.e., 0.125% DMSO). The cross-linking reaction was initiated by the addition of 2 μL of Ru(bpy) (300 μM final concentration) and 2 μL ammonium persulfate (6 mM final concentration). Samples were irradiated immediately. Light exposition was of 1 second duration for ca-syn and 3 second duration for tau isoform 2N4R, with a 53 W (120 V) incandescent lamp installed in a homemade dark-box. Each tube contained a final volume of 20 μL. After irradiation, 8.3 μL. of Lammeli loading buffer containing 15% β-mercaptoethanol was immediately added to the solution, followed by incubation at 95° C. for 10 minutes. The cross-linked samples were separated on a 16% SDS-Page gel and visualized by Coomassie blue staining.
(§2) One end point used to verify the propensity of misfolded protein in the drug discovery field is the inhibition of oligomer formation. The photo-induced cross-linking of unmodified proteins (PICUP) assay was used to investigate α-syn (60 μM) and tau isoform 2N4R (6 μM) oligomerization in the presence of eight amide compounds (2, 4, 5, 6, 7, 8, 13, and 17 at 50 μM, i.e., ~molar ratio 1:8 for tau). After being subjected to short light exposure, α-syn and tau were cross-linked and Coomassie-stained resolved as a higher molecular weight compared to control (0.125% DMSO). […] Compound 13 was used as a negative control for the α-syn PICUP.
(§3) PICUP assays were performed with different concentrations (50 μM, 25 μM, 12.5 μM, 6.25 μM, 3.125 μM; control=0.125% DMSO) for each lead compound.

[2] = Brain and plasma concentration after administration; format: in vivo; details: 1 mg/kg
Method: For compound 8, the brain concentration and plasma concentration ratio is equal to more than 1 for the 3 time points (0.08, 0.5 and 1 hour) where the compound was detected, which is adequate.

[3] = Mouse microsomal stability; format: in vitro ADME
[4] = molecular target: T2, α-synuclein (α-syn) (Homo sapiens, UniProt P37840); test: Thioflavin T (ThT) fluorescence assay of α-syn fibril formation; format: biochemical; details: compound 3.125-100 μM, α-syn 2 μM, plateau phase
T2 construct: purchased rPeptide, LLC (Watkinsville, GA)

[5] = molecular target: α-syn (Homo sapiens, UniProt P37840); test: PICUP assay of α-syn oligomerization; format: biochemical; parameters: purchased rPeptide, LLC (Watkinsville, GA); details: for α-syn oligomerization (PICUP crosslinking): compound 50 μM; for α-syn oligomer formation, PICUP dose-response: compound 3.125-50 μM
Method: as §1, §2, §3

T1 sequence (P10636 1-441 isoform P10636-8): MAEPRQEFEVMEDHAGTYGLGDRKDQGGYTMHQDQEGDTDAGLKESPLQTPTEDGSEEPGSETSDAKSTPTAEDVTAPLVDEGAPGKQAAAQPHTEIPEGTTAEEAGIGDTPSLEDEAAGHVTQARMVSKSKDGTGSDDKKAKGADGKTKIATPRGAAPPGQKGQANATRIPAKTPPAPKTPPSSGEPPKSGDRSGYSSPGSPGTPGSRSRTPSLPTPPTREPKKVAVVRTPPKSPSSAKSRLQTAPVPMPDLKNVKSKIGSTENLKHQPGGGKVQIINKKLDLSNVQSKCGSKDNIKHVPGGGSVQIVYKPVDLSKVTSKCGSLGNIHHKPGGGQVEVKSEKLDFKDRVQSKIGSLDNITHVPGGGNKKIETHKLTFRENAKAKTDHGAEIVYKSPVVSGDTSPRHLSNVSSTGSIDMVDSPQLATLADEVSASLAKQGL

Structure (SMILES) | tau isoform 2N4R oligomerization (PICUP crosslinking) [1] | Half-life [2] | detection of compound over time [2] | Kp ([2]; brain and plasma, 0.08, 0.5 and 1 hour, read-out: brain concentration and plasma concentration ratio) | Mouse microsomal stability [3] | α-syn fibrillization, ThT dose-response [4] | α-syn oligomerization (PICUP crosslinking) [5] | α-syn oligomer formation, PICUP dose-response [5]
O=C(Nc1cccc2[nH]ccc12)c1ccc(F)cc1 [Compound 8, 4-fluoro-N-(1H-indol-4-yl)benzamide] | effectively prevented this crosslinking; also recorded: prevented tau 2N4R oligomer formation | presumed to be short | not detected beyond the time point of 60 min | > 1 | 70% | reduction in protein fibrillization when subjected to higher concentrations | effectively prevented this crosslinking | prevented α-syn oligomer formation in a dose-dependent manner
O=C(Nc1cccc2[nH]ccc12)c1ccccc1 [Compound 2, N-(1H-indol-4-yl)benzamide] | effectively prevented this crosslinking; also recorded: prevented tau 2N4R oligomer formation | – | – | – | – | reduction in protein fibrillization when subjected to higher concentrations | effectively prevented this crosslinking | prevented α-syn oligomer formation in a dose-dependent manner
